In patent US4186136A, “Novel benzothienyl amino (propyl and butyl) ketones, a method of preparation thereof and their application to therapeutics” (priority 1975, dated 1980):
In brackets after ≈: the same amount, converted by molar mass. Several values for one entry are separate records, joined by “and”; a condition that tells them apart may be missing. Identical values can stand only once. Counter-ions that a name gives are not always drawn. Like-named read-outs stand apart in the source and are kept apart here.

Key:
[1] = Acute toxicity, oral, mouse (LD 50, Miller and Tainter); format: in vivo; conditions: in vivo, death rate checked for seven days, read-out: 50% lethal dose (LD 50) (converted)
Description: The acute toxicity of the compounds of formula (I) were evaluated orally (esophagean probe) on a mouse deprived of food 18 hours before the beginning of the test. The products were placed in suspension in a solution of dilute carboxymethyl cellulose. Calculation of the 50 lethal dose (LD 50) was effected according to the method of Miller and Tainter (Miller L. C., Tainter M. L., Proc. Soc. Exptl. Biol. Med. 1944, 57, 261-264).
The death rate was checked for seven days following the treatment.
Table III gives the 50% lethal doses (LD 50) in milligrammes per kilogramme body weight.

[2] = tested on: human blood-plaques (aggregation with adrenaline); test: Inhibition of blood-plaque aggregation induced by adrenaline; format: cell-based; conditions: for inhibition at 25 µg/mL: Homo sapiens, C (X)=2.5×10^-5 g/ml, read-out: Inhibitory activity of the blood-plaque aggregation, ADRENALINE, a (X); for Ratio of a (X) to a (R), ADRENALINE (head drawn): X 2.5×10^-5 g/ml, R 5×10^-4 g/ml
Source text: (§1) The blood plaques used for these studies were human blood-plaques introduced into the test in the form of blood-plaque rich plasmas (B.P.R.P.).
(§2) These latter were obtained as water-repellent material by slow centrifugation from human blood samples.
(§3) The study of blood-plaque aggregation was made by means of an aggregate-meter with continuous agitation and graphic recording according to the conventional method. (PROST R. S., SOUVERAIN C. H., DOUMENC J., Etude de l'agregation plaquettaire a l'aide de l'agregametre de MUSTARD-Coagulation, 1971, 4, 2, 145-151).
(§4) The agents employed for inducing aggregation were diphosphoric adenosine acid (D.P.A.), 1-(3',4'-di-hydroxyphenyl)-2-methylamino ethanol (adrenaline) and collagene. All these reactants were prepared from mother solutions diluted in a Michaelis' buffer. Their concentration in the test may vary according to the affinity of the blood-plaques.
(§5) An optimum concentration is thus sought by successive tests on the same B.P.R.P.
(§6) The inhibitory activity on the aggregation was evaluated by addition of the product under study to the B.P.R.P. before introduction of the aggregating agent.
(§7) The concentrations of compounds of formula I (X) in the B.P.R.P. are: C (X)=2.5×10^-5 g/ml for aggregation with D.P.A. and adrenaline, and C (X)=2×10^-5 g/ml for collagene.
(§8) The reference product (R) is 2,6-bis (diethanolamino)-4,8-dipiperidinopyrimido[5,4-d]pyramidine (known under the trademark "Dipyridamole") used in the concentration C (R)=5×10^-4 g/ml for aggregation with D.P.A. and adrenaline and C (R)=2×10^-4 g/ml for aggregation with collagene.
(§9) The following table IV indicates the activity of some compounds of formula I: a (X) the activity of the reference product: a (R) and the different values of the ratio: [formula]

[3] = tested on: human blood-plaques (aggregation with collagene); test: Inhibition of blood-plaque aggregation induced by collagene; format: cell-based; conditions: for Inhibitory activity of the blood-plaque aggregation, COLLAGENE, a (X) / inhibition at 20 µg/mL: C (X)=2×10^-5 g/ml; for Ratio of a (X) to a (R), COLLAGENE (head drawn): X 2×10^-5 g/ml, R 2×10^-4 g/ml; for inhibition at 20 µg/mL: Homo sapiens, read-out: Inhibitory activity of the blood-plaque aggregation, COLLAGENE, a (X)
Source text: as §1, §2, §3, §4, §5, §6, §7, §8, §9

[4] = tested on: isolated heart of a gumea-pig; test: Vaso-dilatatory activity, coronary flow of isolated perfused heart; conditions: for activation at 10 µg/mL: Locke, 37° C., read-out: Percentage flow increase P (X); for P (X) / P (R): relative to Dipyridamole, both 1×10^-5 g/ml
Description: The coronary flow is recorded, by means of an electronic device fitted with a Fleish totaliser, before and after addition of the substance X under study (concentration: 1×10^-5 g/ml), the reference product (R) being 2,6-bis (diethanolamino) 4,8-dipiperidinopyrimido[5,4-d]pyrimidine (known under the trademark "Dipyridamole") used at a concentration of 1×10^-5 g/ml.
The percentage flow increase P was calculated at the climax of the activity of X or R.

[5] = tested on: human blood-plaques (aggregation with D.P.A.); test: Inhibition of blood-plaque aggregation induced by D.P.A.; format: cell-based; conditions: for Ratio of a (X) to a (R), D.P.A. (head drawn): X 2.5×10^-5 g/ml, R 5×10^-4 g/ml; for inhibition at 25 µg/mL: Homo sapiens, read-out: Inhibitory activity of the blood-plaque aggregation, D.P.A., a (X)
Source text: as §1, §2, §3, §4, §5, §6, §7, §8, §9

rat's isolated duodenum = test: Spasmolytic activity on isolated duodenum contracted by barium chloride (Magnus); conditions: for IC50: Rattus norvegicus, barium chloride contraction, Tyrode, 38° C., read-out: Spasmolytic activity ED 50 (X); for ED 50 (R) / ED 50 (X): relative to papaverine hydrochloride
Description: The spasmolytic activity was studied on a rat's isolated duodenum maintained in a survival medium of an aerated Tyrode solution heated to 38° C. according to the technique of Magnus (Magnus R.-Archivs ges. Physiol., 1905, 180, 1-71).
The contracting agent used was barium chloride, the reference antogonist agent being papaverine hydrochloride (R). The average activity of the compounds of formula I (X) in comparison with that of the reference agent was expressed by calculating the ratio of the 50 efficient doses (ED 50) determined graphically on logarithmic paper: [formula]
For example: a substance having a relative activity expressed by the FIG. 2 presents an activity equal to twice that of papaverine hydrochloride.

[6] = tested on: phenylparaquinone (P.P.Q.) painful syndrome in a mouse; test: Analgesic and anti-inflammatory activity, phenylparaquinone (P.P.Q.) painful syndrome; format: in vivo; conditions: for Analgesic and anti-inflammatory activity, percentage activity a(X): 50 mg/kg digestively; for a(X) / a(R), analgesic and anti-inflammatory activity: X 50 mg/kg, R (Galfenine) 25 mg/kg
Description: The intraperitoneal injection of phenylparaquinone (P.P.Q.) in a mouse causes the appearance of a painful syndrome appearing within 5 minutes of the injection and disappearing after about 30 minutes (SIEGMUND E. A., CADMUS A., LU G., J. Pharmacol. Exp. Therap. 1957, 119, 453). This painful syndrome manifests itself in the animal by a series of characteristic crises, more or less close together and fleeting, during which we can note a twisting or stretching of the body, a hollowing of the sides and a stretching of the hind legs.
It is therefore possible to note the number of crises in a given interval of time.
The preventive administration of analgesic or anti-inflammatory substances prevents the appearance of crises or reduces the frequency thereof.
The reference substance (R) used in the tests was the ester of N-(7-chloro-4 quinolyl) anthranilic acid and 2,3-dihydroxy n.propanol (known under the trademark Galfenine).
It was administered orally with a dose of 25 mg/kg.
The compounds of formula I (X) were administered digestively with a dose of 50 mg/kg.
The interval of time (t) which was chosen to evaluate the analgesic activity was between 10 and 15 minutes which is the period of maximum frequency of the crises. This activity was expressed in the following way:
n: number of crises observed in the control mice;
n': number of crises observed in mice previously treated with the reference substance (R);
n": number of crises observed in mice having received the substance (X).
The percentage activity of R is equal to [formula]
The percentage activity of X is equal to [formula]
The activity of X in relation to that of R is estimated by the ratio [formula]
For example: a compound X for which [formula] is 0.5 has an activity equal to half that of the reference product.

[7] = 1×10^-5 g/ml, coronary flow at climax of activity
[8] = crises between 10 and 15 minutes
[9] = reference product, C (R)=5×10^-4 g/ml

SMILES	LD50 at 168 h ([1]; po)	inhibition at 25 µg/mL [2]	Ratio of a (X) to a (R), ADRENALINE (head drawn) [2]	Ratio of a (X) to a (R), COLLAGENE (head drawn) [3]	Ratio of a (X) to a (R), D.P.A. (head drawn) [5]	inhibition at 25 µg/mL ([5]; C (X)=2.5×10^-5 g/ml)	inhibition at 20 µg/mL [3]	ED 50 (R) / ED 50 (X) (rat's isolated duodenum)	Analgesic and anti-inflammatory activity, percentage activity a(X) [6, 8]	a(X) / a(R), analgesic and anti-inflammatory activity [6]	further results
O=C(CCCN1CCOCC1)c1cc2ccccc2s1 [Compound 1, 1-(benzothien-2'-yl)-4-N-morpholino butanone]	1200 mg/kg	9%	1×10^-1	3.3×10^-1	–	–	–	–	–	–	Inhibitory activity of the blood-plaque aggregation, COLLAGENE, a (X) [3]: 12%; activation at 10 µg/mL [4, 7]: 28%; P (X) / P (R) [4]: 6.5 × 10^-1
C=CCN(CC=C)CCCC(=O)c1cc2ccccc2s1 [Compound 3, 1-(benzothien-2'-yl)-4-N,N-diallylamino butanone oxalate]	–	–	–	1.95×10^-1	1.7×10^-1	15%	13%	2.08	–	–	IC50 (rat's isolated duodenum): 1.2 µg/mL
CN(C)CCCC(=O)c1cc2ccccc2s1 [Compound 4]	950 mg/kg	78%	1	4.5×10^-1	–	–	39%	–	–	–	–
O=C(CCCN1CCCCC1)c1cc2ccccc2s1 [Compound 5]	1300 mg/kg	84%	1.1	1.4×10^-1	1.5×10^-1	8%	12%	–	–	–	–
O=C(CCCN1CCOCC1)c1cc2ccccc2s1 [Compound 6]	–	–	–	3.5×10^-1	1.7×10^-1	15%	–	–	55%	7 × 10^-1	Inhibitory activity of the blood-plaque aggregation, COLLAGENE, a (X) [3]: 32%
CCN(CC)CCCC(=O)c1csc2ccccc12 [Compound 9]	> 1200 mg/kg	86%	1	3×10^-1	1.9×10^-1	15%	16%	8.10	47%	1	–
O=C(CCCN1CCCC1)c1csc2ccccc12 [Compound 13]	760 mg/kg	84%	1.1	–	2.3×10^-1	18%	–	1.55	–	–	IC50 (rat's isolated duodenum): 2.25 µg/mL (≈ 8.23 µM)
O=C(CCCN1CCCCC1)c1csc2ccccc12 [Compound 14]	850 mg/kg	42%	5.5×10^-1	–	–	–	–	–	39%	5.3 × 10^-1	–
O=C(CCCN1CCCCCC1)c1csc2ccccc12 [Compound 15]	950 mg/kg	82%	9.5×10^-1	–	–	–	–	1.6	51%	1.13	Inhibitory activity of the blood-plaque aggregation, D.P.A., a (X) ([5]; C (X)=2.5×10^-5 g/ml): 17%; IC50 (rat's isolated duodenum): 3 µg/mL (≈ 9.95 µM); activation at 10 µg/mL [4, 7]: 172%; P (X) / P (R) [4]: 2.42
OCCN(CCO)c1nc(N2CCCCC2)c2nc(N(CCO)CCO)nc(N3CCCCC3)c2n1 [Dipyridamole, 2,6-bis (diethanolamino)-4,8-dipiperidinopyrimido[5,4-d]pyramidine, reference compound]	–	–	–	–	–	–	–	–	–	–	LD50 at 168 h [1]: 2150 mg/kg; Inhibitory activity of the blood-plaque aggregation, D.P.A., a (R) [5, 9]: 87% and 53% and 79% and 55% and 85%; Inhibitory activity of the blood-plaque aggregation, ADRENALINE, a (R) [2, 9]: 91% and 78% and 86% and 88% and 77%; Inhibitory activity of the blood-plaque aggregation, COLLAGENE, a (R) ([3]; reference product, C (R)=2×10^-4 g/ml): 36%; Percentage flow increase P (R) ([4]; reference product, 1×10^-5 g/ml, coronary flow at climax of activity): 43% and 53% and 71%
O=C(OCC(O)CO)c1ccccc1Nc1ccnc2cc(Cl)ccc12 (stereo not drawn) [Galfenine, ester of N-(7-chloro-4 quinolyl) anthranilic acid and 2,3-dihydroxy n.propanol, reference compound]	–	–	–	–	–	–	–	–	–	–	Analgesic and anti-inflammatory activity, percentage activity a(R) ([6]; reference substance, 25 mg/kg orally, crises between 10 and 15 minutes, 25 mg/kg): 75% and 77% and 45% and 74%
